Source: patent US8703158B2, “Theobromine for the treatment of cough” (Biocopea Limited, priority 2009, dated 2014)

How the values were obtained:
[1] = observations of behaviour and health of dosed animals; conditions: codeine 25 mg/kg i.p.; reduction in movement in exposure chamber
Procedure: Guinea pigs were dosed intra-tracheally with theobromine or vehicle, orally with theobromine and intra-peronteneally with codeine. All pre-treatments were administered at t−30 min prior to citric acid exposure.

[2] = test system: citric acid-induced cough responses; assay: citric acid-induced cough in guinea pigs (antitussive activity); format: in vivo, guinea pig; conditions: for mean number of citric acid-induced coughs / onset time to the first cough: 0.5 h pretreatment; for mean number of citric acid-induced coughs: vehicle 26±4
Procedure: The aim of this Example is to provide an assessment of the antitussive activity of intra-tracheally (i.t.) or orally dosed (p.o.) administered theobromine (3-30 mg/kg) compared to the positive control codeine (25 mg/kg, i.p.) against irritant-induced cough responses.
Thirty-six guinea pigs were randomly allocated to one of the six treatment groups (see Table 1) according to the blinding code.

SMILES	behaviour of the animals (sedation) [1]	mean number of citric acid-induced coughs ([2]; codeine 25 mg/kg i.p., citric acid 1 M, 10 min exposure + 5 min recovery) [coughs]	onset time to the first cough ([2]; codeine 25 mg/kg i.p., vehicle 71±26 s) [s]	inhaled dose giving equivalent anti-tussive effect, as fraction of the oral dose ([2]; citric acid-induced cough model, inhaled (i.t.) versus oral)	mean number of citric acid-induced coughs ([2]; theobromine 10 mg/kg i.t.) [coughs]	onset time to the first cough ([2]; theobromine 30 mg/kg p.o., versus vehicle control (71±26 s))	effect on the total number of coughs ([2]; theobromine 3-30 mg/kg i.t., local administration)
COc1ccc2c3c1O[C@H]1[C@@H](O)C=C[C@H]4[C@@H](C2)N(C)CC[C@@]341 [codeine]	slight sedation	5±1	337 ± 51	–	–	–	–
Cn1cnc2c1c(=O)[nH]c(=O)n2C [theobromine]	–	–	–	⅓	10.33±2	not significantly increased	significant dose-dependant effect
